# Assay results reported in ChEMBL document CHEMBL3885861, “Open TG-GATES”.
# Species on record: Rattus norvegicus
# Assay: Open TG-GATES - Regimen: Daily Repeat
# Assay type: toxicity, organism-based, Sprague-Dawley
# Parameters: regimen Daily Repeat, gender Male, age 6 weeks
# Conditions: in vivo, po, route gavage; for APTT / Bas / Eos / Fbg / Hb / Ht / Lym / MCH / MCHC / MCV / Mono / Neu / PT / Plat / RBC / Ret / WBC: tissue Blood; for KIDNEY_L / KIDNEY_R / KIDNEY_TOTAL: tissue Kidney; for LIVER: tissue Liver; for A/G / ALP / ALT / AST / BUN / CRE / Ca / Cl / DBIL / GLC / IP / K / LDH / Na / PL / RALB / TBIL / TC / TG / TP / gamma-GTP: tissue Plasma
# [1] = 0 mg/kg, 72 h, dose level Control, time 3 day
# [2] = 0 mg/kg, […], dose level Control, time 7 day
# [3] = 0 mg/kg, […], dose level Control, time 14 day
# [4] = 0 mg/kg, […], dose level Control, time 28 day
# [5] = 30 mg/kg, 72 h, dose level Low, time 3 day
# [6] = 30 mg/kg, […], dose level Low, time 7 day
# [7] = 30 mg/kg, […], dose level Low, time 14 day
# [8] = 30 mg/kg, […], dose level Low, time 28 day
smiles,measurement,setting,value
CCc1cc(C(N)=S)ccn1 [ETHIONAMIDE],TERMINAL_BW,[1],250.2 g
same,APTT,[1],17.3 s
same,Bas,[1],0%
same,Eos,[1],1%
same,Fbg,[1],262 mg/dL
same,Hb,[1],13.2 g/dL
same,Ht,[1],38.9%
same,Lym,[1],73%
same,MCH,[1],22 pg
same,MCHC,[1],33.9%
same,MCV,[1],64.7 fL
same,Mono,[1],7.6%
same,Neu,[1],18.6%
same,PT,[1],11.9 s
same,Plat,[1],128 x10_4/uL
same,RBC,[1],601.2 x10_4/ul
same,Ret,[1],12.2%
same,WBC,[1],130.2 x10_2/uL
same,KIDNEY_L,[1],1.1 g
same,KIDNEY_R,[1],1.2 g
same,KIDNEY_TOTAL,[1],2.3 g
same,LIVER,[1],12.8 g
same,A/G,[1],1.6
same,ALP,[1],851.8 IU/L
same,ALT,[1],39 IU/L
same,AST,[1],62.8 IU/L
same,BUN,[1],18.2 mg/dL
same,CRE,[1],0.5 mg/dL
same,Ca,[1],11 mg/dL
same,Cl,[1],104.6 meq/L
same,DBIL,[1],0.018 mg/dL
same,GLC,[1],188.6 mg/dL
same,IP,[1],7.3 mg/dL
same,K,[1],4.6 meq/L
same,LDH,[1],80.2 IU/L
same,Na,[1],141 meq/L
same,PL,[1],153 mg/dL
same,RALB,[1],3.6 g/dL
same,TBIL,[1],0.3 mg/dL
same,TC,[1],80.6 mg/dL
same,TG,[1],99 mg/dL
same,TP,[1],5.8 g/dL
same,gamma-GTP,[1],2 IU/L
same,TERMINAL_BW,[2],270.2 g
same,TERMINAL_BW,[3],326.8 g
same,TERMINAL_BW,[4],416.8 g
same,APTT,[2],17.5 s
same,Bas,[2],0%
same,Eos,[2],1%
same,Fbg,[2],218.4 mg/dL
same,Hb,[2],14.1 g/dL
same,Ht,[2],41.5%
same,Lym,[2],78%
same,MCH,[2],21.4 pg
same,MCHC,[2],34%
same,MCV,[2],62.9 fL
same,Mono,[2],8%
same,Neu,[2],13%
same,PT,[2],11.5 s
same,Plat,[2],119.6 x10_4/uL
same,RBC,[2],661.6 x10_4/ul
same,Ret,[2],3.8%
same,WBC,[2],107.3 x10_2/uL
same,APTT,[3],18.7 s
same,Bas,[3],0%
same,Eos,[3],1%
same,Fbg,[3],215.4 mg/dL
same,Hb,[3],14.8 g/dL
same,Ht,[3],43.6%
same,Lym,[3],79.6%
same,MCH,[3],20.5 pg
same,MCHC,[3],33.8%
same,MCV,[3],60.8 fL
same,Mono,[3],5.4%
same,Neu,[3],14.2%
same,PT,[3],12 s
same,Plat,[3],120.6 x10_4/uL
same,RBC,[3],718.8 x10_4/ul
same,Ret,[3],4%
same,WBC,[3],122.9 x10_2/uL
same,APTT,[4],18.6 s
same,Bas,[4],0%
same,Eos,[4],1.6%
same,Fbg,[4],235.8 mg/dL
same,Hb,[4],15.6 g/dL
same,Ht,[4],46%
same,Lym,[4],78.8%
same,MCH,[4],19.6 pg
same,MCHC,[4],34%
same,MCV,[4],57.7 fL
same,Mono,[4],6.6%
same,Neu,[4],13.2%
same,PT,[4],11.9 s
same,Plat,[4],116.1 x10_4/uL
same,RBC,[4],796.2 x10_4/ul
same,Ret,[4],4.8%
same,WBC,[4],122.5 x10_2/uL
same,KIDNEY_L,[2],1.2 g
same,KIDNEY_R,[2],1.3 g
same,KIDNEY_TOTAL,[2],2.5 g
same,KIDNEY_L,[3],1.3 g
same,KIDNEY_R,[3],1.3 g
same,KIDNEY_TOTAL,[3],2.7 g
same,KIDNEY_L,[4],1.6 g
same,KIDNEY_R,[4],1.6 g
same,KIDNEY_TOTAL,[4],3.2 g
same,LIVER,[2],13.2 g
same,LIVER,[3],14.6 g
same,LIVER,[4],17.7 g
same,A/G,[2],1.6
same,ALP,[2],836.8 IU/L
same,ALT,[2],30.8 IU/L
same,AST,[2],58.4 IU/L
same,BUN,[2],18.4 mg/dL
same,CRE,[2],0.4 mg/dL
same,Ca,[2],10.2 mg/dL
same,Cl,[2],103.8 meq/L
same,DBIL,[2],0.064 mg/dL
same,GLC,[2],195.6 mg/dL
same,IP,[2],7.3 mg/dL
same,K,[2],4.8 meq/L
same,LDH,[2],74.6 IU/L
same,Na,[2],140 meq/L
same,PL,[2],153.4 mg/dL
same,RALB,[2],3.7 g/dL
same,TBIL,[2],0.3 mg/dL
same,TC,[2],74.2 mg/dL
same,TG,[2],129.4 mg/dL
same,TP,[2],6 g/dL
same,gamma-GTP,[2],2 IU/L
same,A/G,[3],2.3
same,ALP,[3],758.4 IU/L
same,ALT,[3],32 IU/L
same,AST,[3],62 IU/L
same,BUN,[3],19.8 mg/dL
same,CRE,[3],0.5 mg/dL
same,Ca,[3],10.7 mg/dL
same,Cl,[3],105.6 meq/L
same,DBIL,[3],0.052 mg/dL
same,GLC,[3],196.2 mg/dL
same,IP,[3],6.8 mg/dL
same,K,[3],4.7 meq/L
same,LDH,[3],68.6 IU/L
same,Na,[3],142 meq/L
same,PL,[3],146.2 mg/dL
same,RALB,[3],4.1 g/dL
same,TBIL,[3],0.3 mg/dL
same,TC,[3],68.8 mg/dL
same,TG,[3],111.6 mg/dL
same,TP,[3],5.8 g/dL
same,gamma-GTP,[3],1.4 IU/L
same,A/G,[4],1.8
same,ALP,[4],523.4 IU/L
same,ALT,[4],31.6 IU/L
same,AST,[4],55.6 IU/L
same,BUN,[4],21.2 mg/dL
same,CRE,[4],0.6 mg/dL
same,Ca,[4],10.2 mg/dL
same,Cl,[4],104.4 meq/L
same,DBIL,[4],0.02 mg/dL
same,GLC,[4],199.4 mg/dL
same,IP,[4],6 mg/dL
same,K,[4],4.6 meq/L
same,LDH,[4],74.8 IU/L
same,Na,[4],140.4 meq/L
same,PL,[4],141.2 mg/dL
same,RALB,[4],4 g/dL
same,TBIL,[4],0.3 mg/dL
same,TC,[4],69 mg/dL
same,TG,[4],157.2 mg/dL
same,TP,[4],6.2 g/dL
same,gamma-GTP,[4],1.8 IU/L
same,TERMINAL_BW,[5],240.4 g
same,APTT,[5],17.3 s
same,Bas,[5],0%
same,Eos,[5],1.6%
same,Fbg,[5],217.6 mg/dL
same,Hb,[5],14.2 g/dL
same,Ht,[5],42.2%
same,Lym,[5],75%
same,MCH,[5],21 pg
same,MCHC,[5],33.7%
same,MCV,[5],62.3 fL
same,Mono,[5],6.6%
same,Neu,[5],17.4%
same,PT,[5],11.5 s
same,Plat,[5],130.1 x10_4/uL
same,RBC,[5],677.6 x10_4/ul
same,Ret,[5],9.8%
same,WBC,[5],94.2 x10_2/uL
same,KIDNEY_L,[5],1.1 g
same,KIDNEY_R,[5],1.1 g
same,KIDNEY_TOTAL,[5],2.2 g
same,LIVER,[5],12.2 g
same,A/G,[5],1.8
same,ALP,[5],919.8 IU/L
same,ALT,[5],34.4 IU/L
same,AST,[5],60 IU/L
same,BUN,[5],18 mg/dL
same,CRE,[5],0.5 mg/dL
same,Ca,[5],10.7 mg/dL
same,Cl,[5],105.4 meq/L
same,DBIL,[5],0.008 mg/dL
same,GLC,[5],190.8 mg/dL
same,IP,[5],7.2 mg/dL
same,K,[5],4.6 meq/L
same,LDH,[5],84 IU/L
same,Na,[5],141.2 meq/L
same,PL,[5],152.6 mg/dL
same,RALB,[5],3.6 g/dL
same,TBIL,[5],0.2 mg/dL
same,TC,[5],80 mg/dL
same,TG,[5],100.4 mg/dL
same,TP,[5],5.6 g/dL
same,gamma-GTP,[5],2 IU/L
same,TERMINAL_BW,[6],280.6 g
same,TERMINAL_BW,[7],330.7 g
same,TERMINAL_BW,[8],406.9 g
same,APTT,[6],16.9 s
same,Bas,[6],0%
same,Eos,[6],1%
same,Fbg,[6],223.4 mg/dL
same,Hb,[6],13.9 g/dL
same,Ht,[6],41.1%
same,Lym,[6],71%
same,MCH,[6],21.2 pg
same,MCHC,[6],34%
same,MCV,[6],62.5 fL
same,Mono,[6],9.4%
same,Neu,[6],18.8%
same,PT,[6],11.5 s
same,Plat,[6],132.9 x10_4/uL
same,RBC,[6],657.4 x10_4/ul
same,Ret,[6],5%
same,WBC,[6],131.2 x10_2/uL
same,APTT,[7],16.8 s
same,Bas,[7],0%
same,Eos,[7],1.2%
same,Fbg,[7],223 mg/dL
same,Hb,[7],14.9 g/dL
same,Ht,[7],43.6%
same,Lym,[7],76.4%
same,MCH,[7],20.7 pg
same,MCHC,[7],34.1%
same,MCV,[7],60.6 fL
same,Mono,[7],4%
same,Neu,[7],18%
same,PT,[7],11.8 s
same,Plat,[7],125.2 x10_4/uL
same,RBC,[7],720.8 x10_4/ul
same,Ret,[7],4.5%
same,WBC,[7],124.4 x10_2/uL
same,APTT,[8],17.4 s
same,Bas,[8],0%
same,Eos,[8],1.4%
same,Fbg,[8],234.8 mg/dL
same,Hb,[8],15.5 g/dL
same,Ht,[8],45.4%
same,Lym,[8],74%
same,MCH,[8],19.8 pg
same,MCHC,[8],34.2%
same,MCV,[8],57.7 fL
same,Mono,[8],6%
same,Neu,[8],19.2%
same,PT,[8],11.7 s
same,Plat,[8],123.5 x10_4/uL
same,RBC,[8],785.8 x10_4/ul
same,Ret,[8],5.4%
same,WBC,[8],154 x10_2/uL
same,KIDNEY_L,[6],1.2 g
same,KIDNEY_R,[6],1.2 g
same,KIDNEY_TOTAL,[6],2.4 g
same,KIDNEY_L,[7],1.4 g
same,KIDNEY_R,[7],1.4 g
same,KIDNEY_TOTAL,[7],2.7 g
same,KIDNEY_L,[8],1.5 g
same,KIDNEY_R,[8],1.6 g
same,KIDNEY_TOTAL,[8],3.1 g
same,LIVER,[6],13.8 g
same,LIVER,[7],15 g
same,LIVER,[8],17.7 g
same,A/G,[6],1.6
same,ALP,[6],859.6 IU/L
same,ALT,[6],31.8 IU/L
same,AST,[6],57.2 IU/L
same,BUN,[6],20 mg/dL
same,CRE,[6],0.4 mg/dL
same,Ca,[6],10.4 mg/dL
same,Cl,[6],103.2 meq/L
same,DBIL,[6],0.078 mg/dL
same,GLC,[6],197.2 mg/dL
same,IP,[6],6.8 mg/dL
same,K,[6],5 meq/L
same,LDH,[6],95.2 IU/L
same,Na,[6],139.2 meq/L
same,PL,[6],143.6 mg/dL
same,RALB,[6],3.6 g/dL
same,TBIL,[6],0.3 mg/dL
same,TC,[6],71.8 mg/dL
same,TG,[6],119.6 mg/dL
same,TP,[6],5.9 g/dL
same,gamma-GTP,[6],2 IU/L
same,A/G,[7],2.3
same,ALP,[7],705.8 IU/L
